Holding throughout (assay): NCI tumour cell line growth inhibition, 48 h
The test system of assay [1] is SF-295 CNS.
The test system of assay [2] is CAKI-1 renal.
Assay [3] has as its system SK-MEL-5 melanoma.
In assay [4] the test system is NCI/ADR-RES ovarian.
Assay [5] has as its system HCT-15 colon.
For assay [6], the system named is HOP-62 NSCLC.
The test system of assay [7] is ACHN renal.
Assay [8] has as its system NCI-H460 lung.
Assay [9] concerns SF-539 CNS.

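Interpolation was linear, between the two tested concentrations surrounding the appropriate level; five concentrations were tested over 48 hours in 96-well plates. At the GI50, growth is halved. TGI marks complete inhibition of growth.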

As to `Cc1ccc(Nc2nc3[nH]ccc3c(=O)[nH]2)cc1`, the TGI in assay [1], in assay [2], in [3], in [4], in [5] and in assay [6] was greater than 100 µM each time. In addition, the TGI in assay [7], in assay [8] and in assay [9] was greater than 100 µM each time.

As to `O=C(O)CCc1nc2c(n1-c1ccccc1)C(=O)c1ccccc1C2=O`, the TGI in [1], in assay [2], in assay [3], in assay [4], in [5] and in [6] was greater than 100 µM throughout. Moreover, the TGI in assay [7], in assay [8] and in [9] was greater than 100 µM each time.

For `CC(=O)O[C@H]1CC(C)(C)C(=C=C/C(C)=C/C=C/C=C/C=C(C)/C=C2C=C(/C=C/[C@@]34O[C@]3(C)C[C@@H](O)CC4(C)C)C(=O)O/2)[C@](C)(O)C1`, the TGI was found to be 34.3 µM in assay [1]; 98.1 µM in [2]; 28.9 µM in assay [3]; 34.5 µM in [4]; 35 µM in [5]; 32 µM in assay [6]. Also, the TGI is 48.7 µM in [7], greater than 100 µM in assay [8] and 38 µM in assay [9].

As for `C#CCNC(CSSCC(N)C(=O)O)C(=O)O` (configuration not stated), the TGI in assay [1], in assay [2], in [3], in assay [4], in [5] and in assay [6] was greater than 100 µM throughout. The TGI in assay [7] and in assay [9] was greater than 100 µM in each case.

For `O=c1[nH]cc(NCCCl)c(=O)[nH]1`, the TGI in assay [1], in [2], in [3], in [4], in assay [5] and in assay [6] was greater than 100 µM in each case. The TGI in assay [7], in [8] and in [9] was greater than 100 µM each time.

Consider `O=C(O)CC(Cc1ccccc1Cl)C(=O)O` (configuration not stated), for which the TGI in [1], in assay [2], in [3], in assay [4], in [5] and in assay [6] was greater than 100 µM throughout. Further, the TGI in assay [7] and in assay [8] was greater than 100 µM each time.

Regarding `CC(N=NNc1ccc(-c2nc3ccccc3[nH]2)cc1)C(=O)O` (configuration not stated), the TGI was 72.1 µM in assay [1]; greater than 100 µM in assay [2]; greater than 100 µM in assay [3]; 90.6 µM in assay [4]; 61.6 µM in assay [5]; greater than 100 µM in [6]. In addition, the figures for the TGI in assay [7], in [8] and in [9] were greater than 100 µM, 79 µM and greater than 100 µM, respectively.

Take `Cc1cc(C)nc(NS(=O)(=O)c2ccc(NC(=O)c3c4ccccc4nc4ccccc34)cc2)n1`: the TGI in [1], in assay [2], in assay [3], in assay [4], in assay [5] and in [6] was greater than 100 µM in each case. For the same compound, the TGI in assay [7], in assay [8] and in assay [9] was greater than 100 µM each time.

Take `COc1cc(/C=C2\C(=O)N(c3cccc([N+](=O)[O-])c3)C(c3ccccc3)S2(=O)=O)cc(OC)c1OC` (configuration not stated): the TGI in [1], in assay [2], in [3], in assay [4], in assay [5] and in assay [6] was greater than 100 µM in each case. For the same compound, the TGI in assay [7] and in assay [8] was greater than 100 µM in each case.

For the compound `C/C(CC(O)(C(F)(F)F)C(F)(F)F)=N\NC(N)=O`, the TGI in [1], in assay [2], in [3], in [4], in assay [5] and in assay [6] was greater than 10 µM each time. Also, the TGI in assay [7], in [8] and in assay [9] was greater than 10 µM in each case.

In the case of `C=CCC1(C#N)C(=S)NC2=C(C(=O)CC(C)(C)C2)C1c1ccccc1` (configuration not stated), the TGI in assay [2], in assay [3], in assay [4], in [5] and in assay [9] was greater than 100 µM throughout.

For `CC(C)(C)c1ccc(OCCOc2ccc(C(C)(C)C)cc2N)c(N)c1`, the TGI in assay [1], in assay [2], in [3], in [4], in assay [5] and in [6] was greater than 100 µM each time. The TGI in [7], in assay [8] and in assay [9] was greater than 100 µM each time.

Turning to `CCC/C(Cl)=N\OC(=O)Nc1ccc(F)cc1`, the TGI in assay [1] is greater than 100 µM; in assay [2], 3.47 µM; in [3], 26.7 µM; in assay [4], greater than 62.3 µM; in assay [5] it was 19.3 µM; in [6] it was 38.2 µM. The figures for the TGI in assay [7] and in [8] were 24.7 µM and greater than 100 µM, respectively.

As to `O=C(/C=C(/C=C/c1ccc2[nH]ccc2c1)OB(F)F)/C=C/c1ccc2[nH]ccc2c1`, the GI50 was 2.28 µM in assay [1]; 2.56 µM in [2]; 2.98 µM in assay [3]; 2.7 µM in assay [4]; 0.653 µM in assay [5]; 3.38 µM in [6]. In addition, the values for the GI50 in assay [7] and in assay [9] were 2.52 µM and 2.68 µM, respectively. In addition, the TGI in assay [1] is greater than 100 µM; in assay [2], 10.1 µM; in [3] it was 13.3 µM; in assay [4] it was greater than 100 µM; in assay [5], 4.43 µM; in assay [6], greater than 100 µM. Further, the TGI was 7.57 µM in assay [7] and 9.29 µM in assay [9].

Turning to `CCO/C(=N/S(=O)(=O)C(F)(F)F)N(C(C)C)C(C)C`, the TGI in [2], in assay [3], in assay [4], in [5], in [7] and in assay [8] was greater than 100 µM each time. In assay [9], the TGI is greater than 100 µM.

The record behind these values is PubChem BioAssay (NCI).
